From US20250186432A1, “SPLEEN TYROSINE KINASE INHIBITOR, COMPOSITION, AND METHODS OF USE” (PURDUE RESEARCH FOUNDATION, priority 2022, published 2025) come the findings set out here.

Read-outs that look alike come from different tables or passages of the source.

The target of one series is HGFR (Homo sapiens, UniProt P08581). As to the kind of experiment: ADP-Glo kinase inhibition assay, HGFR. It counts as biochemical. The following applies: for IC50: ADP-Glo.
The next series concerns the target IGF1R (Homo sapiens, UniProt P08069). As to the kind of experiment: ADP-Glo kinase inhibition assay, IGF1R.
A short description of another series: LogP. Type of series: physicochemical. An excerpt: The compound can have a CLogP value between about 2.0 and about 5.0 (e.g., between 2.0 and about 5.0, about 2.0 and 5.0, or 2.0 and 5.0). In certain embodiments, e.g., compound S1213, the compound has a CLogP value of between about 1.0 and about 2.0 (e.g., between 1.0 and about 2.0, about 1.0 and 2.0, or 1.0 and 2.0). The term “cLogP” refers to a calculated partition coefficient which in the physical sciences, is the ratio of concentrations of a compound in a mixture of the two immiscible phases at equilibrium. These coefficients are a measure of the difference in solubility of the compound in these two phases. In general, this is a measure of hydrophobicity of the compound as one phase is aqueous (traditionally water) and the other is hydrophobic (traditionally octanol). Higher values indicate greater partitioning of the compound into the hydrophobic phase and support increased hydrophobicity.

Series [1] concerns Band 3 tyrosine phosphorylation. As to the kind of experiment: Inhibition of Band 3 tyrosine phosphorylation (cellular potency). Type of series: cell-based, human.
The target in series [2] is VEGFR (Homo sapiens, UniProt P35916). Briefly: ADP-Glo kinase inhibition assay, VEGFR. It counts as biochemical. Particulars: ADP-Glo.
Chain of VEGFR (Homo sapiens, UniProt P35916) (P35916 whole entry): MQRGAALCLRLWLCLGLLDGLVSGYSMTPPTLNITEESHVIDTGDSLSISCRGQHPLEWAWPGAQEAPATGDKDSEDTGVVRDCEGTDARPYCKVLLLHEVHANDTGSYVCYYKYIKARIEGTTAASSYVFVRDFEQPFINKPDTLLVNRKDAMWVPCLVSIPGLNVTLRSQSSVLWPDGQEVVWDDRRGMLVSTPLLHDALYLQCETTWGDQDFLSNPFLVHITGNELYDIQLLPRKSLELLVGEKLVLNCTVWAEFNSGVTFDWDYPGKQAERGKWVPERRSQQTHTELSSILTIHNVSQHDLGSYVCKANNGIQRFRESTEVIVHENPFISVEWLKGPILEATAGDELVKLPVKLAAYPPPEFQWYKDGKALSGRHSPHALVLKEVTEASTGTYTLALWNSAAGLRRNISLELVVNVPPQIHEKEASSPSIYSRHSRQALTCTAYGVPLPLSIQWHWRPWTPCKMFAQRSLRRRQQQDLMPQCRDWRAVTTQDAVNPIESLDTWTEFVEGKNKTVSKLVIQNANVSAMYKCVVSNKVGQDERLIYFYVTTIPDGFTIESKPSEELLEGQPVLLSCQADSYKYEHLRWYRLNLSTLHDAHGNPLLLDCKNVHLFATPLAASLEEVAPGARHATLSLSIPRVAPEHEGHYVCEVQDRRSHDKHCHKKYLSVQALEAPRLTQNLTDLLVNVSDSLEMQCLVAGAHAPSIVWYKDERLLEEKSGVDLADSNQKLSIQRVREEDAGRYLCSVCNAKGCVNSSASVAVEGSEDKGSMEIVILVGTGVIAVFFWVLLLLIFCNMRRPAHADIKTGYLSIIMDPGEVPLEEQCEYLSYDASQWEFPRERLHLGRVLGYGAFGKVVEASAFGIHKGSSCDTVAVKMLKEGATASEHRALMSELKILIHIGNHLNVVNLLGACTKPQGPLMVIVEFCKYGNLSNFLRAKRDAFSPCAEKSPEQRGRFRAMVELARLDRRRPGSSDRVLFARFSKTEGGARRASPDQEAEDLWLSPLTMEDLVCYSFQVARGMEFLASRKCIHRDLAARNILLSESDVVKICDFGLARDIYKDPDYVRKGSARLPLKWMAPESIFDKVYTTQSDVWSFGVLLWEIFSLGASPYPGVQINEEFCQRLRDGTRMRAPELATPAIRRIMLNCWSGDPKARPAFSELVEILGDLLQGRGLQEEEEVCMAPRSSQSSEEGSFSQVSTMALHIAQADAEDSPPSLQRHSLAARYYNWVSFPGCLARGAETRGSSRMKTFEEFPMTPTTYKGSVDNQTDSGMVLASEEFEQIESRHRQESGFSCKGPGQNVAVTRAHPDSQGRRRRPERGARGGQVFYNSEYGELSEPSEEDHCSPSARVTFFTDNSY
In a further series the target is EGFR (Homo sapiens, UniProt P00533). Briefly: ADP-Glo kinase inhibition assay, EGFR. Type of series: biochemical. The following applies: for IC50: ADP-Glo.
Chain of EGFR (P00533 25-1210): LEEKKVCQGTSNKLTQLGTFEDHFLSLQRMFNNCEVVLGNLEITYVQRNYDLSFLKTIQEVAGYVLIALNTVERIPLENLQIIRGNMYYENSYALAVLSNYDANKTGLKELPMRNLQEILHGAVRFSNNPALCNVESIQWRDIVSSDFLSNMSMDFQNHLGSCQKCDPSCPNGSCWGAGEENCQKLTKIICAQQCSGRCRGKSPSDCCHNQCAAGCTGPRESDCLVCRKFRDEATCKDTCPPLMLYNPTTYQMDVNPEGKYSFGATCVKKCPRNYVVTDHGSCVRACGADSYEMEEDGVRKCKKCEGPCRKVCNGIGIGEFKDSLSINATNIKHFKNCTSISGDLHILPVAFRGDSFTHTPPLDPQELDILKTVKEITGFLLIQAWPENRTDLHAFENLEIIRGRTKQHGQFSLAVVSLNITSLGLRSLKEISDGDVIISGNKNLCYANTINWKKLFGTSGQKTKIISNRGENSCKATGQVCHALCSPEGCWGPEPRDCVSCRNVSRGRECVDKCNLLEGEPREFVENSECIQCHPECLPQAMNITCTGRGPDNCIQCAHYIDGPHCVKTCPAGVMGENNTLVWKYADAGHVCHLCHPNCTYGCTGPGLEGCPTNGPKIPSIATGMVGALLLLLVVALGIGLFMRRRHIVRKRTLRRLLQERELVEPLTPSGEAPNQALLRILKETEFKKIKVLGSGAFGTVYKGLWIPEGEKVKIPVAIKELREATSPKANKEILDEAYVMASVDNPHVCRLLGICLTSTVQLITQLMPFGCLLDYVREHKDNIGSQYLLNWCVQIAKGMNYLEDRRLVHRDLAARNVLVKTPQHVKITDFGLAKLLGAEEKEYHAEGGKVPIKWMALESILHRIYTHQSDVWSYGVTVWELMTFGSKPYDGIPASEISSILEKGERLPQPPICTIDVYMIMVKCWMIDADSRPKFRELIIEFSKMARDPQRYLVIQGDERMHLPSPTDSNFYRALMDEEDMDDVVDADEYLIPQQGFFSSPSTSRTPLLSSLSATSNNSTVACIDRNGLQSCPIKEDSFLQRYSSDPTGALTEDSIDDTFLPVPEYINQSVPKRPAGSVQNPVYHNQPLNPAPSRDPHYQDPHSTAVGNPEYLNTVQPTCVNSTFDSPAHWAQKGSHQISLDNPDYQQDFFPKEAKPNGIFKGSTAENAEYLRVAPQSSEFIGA
For another series, the target named is Syk (Homo sapiens, UniProt P43405). As to the kind of experiment: ADP-Glo kinase inhibition assay, Syk.
The target in the next series is FGFR3 (Homo sapiens, UniProt P22607). Briefly: ADP-Glo kinase inhibition assay, FGFR3.
Chain of FGFR3 (P22607 23-806): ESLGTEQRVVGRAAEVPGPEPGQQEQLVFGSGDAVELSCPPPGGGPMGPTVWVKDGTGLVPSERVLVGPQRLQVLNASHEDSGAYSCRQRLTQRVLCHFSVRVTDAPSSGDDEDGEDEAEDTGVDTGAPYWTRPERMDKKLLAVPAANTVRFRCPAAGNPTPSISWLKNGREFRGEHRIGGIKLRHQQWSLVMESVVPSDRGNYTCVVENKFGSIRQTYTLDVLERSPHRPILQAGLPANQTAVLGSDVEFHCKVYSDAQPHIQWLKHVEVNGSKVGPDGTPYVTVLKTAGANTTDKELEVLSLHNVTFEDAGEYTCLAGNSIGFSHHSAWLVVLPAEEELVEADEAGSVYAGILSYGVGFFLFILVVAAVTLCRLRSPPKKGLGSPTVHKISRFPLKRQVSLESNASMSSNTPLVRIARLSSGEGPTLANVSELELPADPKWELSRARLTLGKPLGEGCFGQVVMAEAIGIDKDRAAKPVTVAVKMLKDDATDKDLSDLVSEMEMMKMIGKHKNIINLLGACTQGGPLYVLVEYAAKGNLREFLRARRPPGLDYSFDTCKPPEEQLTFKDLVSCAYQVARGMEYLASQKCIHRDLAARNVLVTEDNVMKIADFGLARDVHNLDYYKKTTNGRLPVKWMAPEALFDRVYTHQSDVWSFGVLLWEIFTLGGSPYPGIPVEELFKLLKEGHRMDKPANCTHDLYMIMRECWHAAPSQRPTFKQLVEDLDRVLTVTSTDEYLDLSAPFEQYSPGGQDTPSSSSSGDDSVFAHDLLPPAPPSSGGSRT
Series [3] in a line: Absolute oral bioavailability. Particulars: in vivo, read-out: Absolute oral bioavailability F.
Series [4] relates to VEGFR. As to the kind of experiment: ADP-Glo kinase inhibition assay, VEGFR. Type of series: biochemical. The following applies: selectivity ratio.
Setting [5] is: Homo sapiens, read-out: Inhibition of Band 3 Tyrosine Phosphorylation EC50, pTyr.
Setting [6] is: Homo sapiens, read-out: Inhibition of Band 3 Tyrosine Phosphorylation EC50, pTyr8.
[7] abbreviates: Homo sapiens, read-out: Inhibition of Band 3 Tyrosine Phosphorylation EC50, pTyr359.
Where [8] appears, read: pTyr, read-out: Inhibition of Band 3 Tyrosine Phosphorylation EC50, pTyr.

Chain of IGF1R (P08069 31-1367): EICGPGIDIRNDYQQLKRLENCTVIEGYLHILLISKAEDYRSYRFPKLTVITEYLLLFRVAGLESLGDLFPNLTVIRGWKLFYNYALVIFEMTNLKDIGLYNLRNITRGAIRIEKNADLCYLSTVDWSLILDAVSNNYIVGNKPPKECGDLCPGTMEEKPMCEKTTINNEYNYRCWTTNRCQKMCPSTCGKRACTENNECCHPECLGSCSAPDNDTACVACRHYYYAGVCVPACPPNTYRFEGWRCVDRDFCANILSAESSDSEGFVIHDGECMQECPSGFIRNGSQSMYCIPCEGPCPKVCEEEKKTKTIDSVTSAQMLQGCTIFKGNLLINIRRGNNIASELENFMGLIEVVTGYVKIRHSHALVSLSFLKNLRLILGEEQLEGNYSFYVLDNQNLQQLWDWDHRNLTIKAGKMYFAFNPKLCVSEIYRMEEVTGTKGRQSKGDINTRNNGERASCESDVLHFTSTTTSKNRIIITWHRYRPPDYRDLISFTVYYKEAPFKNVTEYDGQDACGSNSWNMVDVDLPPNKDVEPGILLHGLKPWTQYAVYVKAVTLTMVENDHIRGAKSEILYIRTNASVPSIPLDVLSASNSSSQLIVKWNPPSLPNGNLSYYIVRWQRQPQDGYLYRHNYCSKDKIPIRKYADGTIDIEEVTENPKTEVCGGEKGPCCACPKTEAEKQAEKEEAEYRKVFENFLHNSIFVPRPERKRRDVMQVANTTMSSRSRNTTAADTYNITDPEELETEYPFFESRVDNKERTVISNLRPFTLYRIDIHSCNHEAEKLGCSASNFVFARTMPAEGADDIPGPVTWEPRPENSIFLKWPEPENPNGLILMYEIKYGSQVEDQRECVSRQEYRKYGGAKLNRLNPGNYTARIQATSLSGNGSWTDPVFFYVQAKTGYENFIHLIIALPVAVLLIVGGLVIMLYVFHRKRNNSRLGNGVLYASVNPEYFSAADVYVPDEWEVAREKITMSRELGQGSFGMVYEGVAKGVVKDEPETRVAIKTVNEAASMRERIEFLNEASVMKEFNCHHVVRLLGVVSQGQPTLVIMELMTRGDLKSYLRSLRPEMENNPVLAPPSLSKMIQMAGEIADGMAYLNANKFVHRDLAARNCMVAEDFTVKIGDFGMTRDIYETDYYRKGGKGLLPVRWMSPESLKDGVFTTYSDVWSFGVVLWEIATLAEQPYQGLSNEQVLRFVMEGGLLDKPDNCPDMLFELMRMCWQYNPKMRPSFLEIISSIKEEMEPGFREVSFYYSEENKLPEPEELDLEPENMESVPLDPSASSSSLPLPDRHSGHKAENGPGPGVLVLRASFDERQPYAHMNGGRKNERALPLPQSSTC

In the case of `COc1ccc(Nc2nc(-c3ccc4c(CN5CC(O)C5)cn(CO)c4c3)cn3ccnc23)cc1OC` [Compound S970D], the 50% inhibitory concentration (IC50) at HGFR was over 40000 nM; at IGF1R it was over 5000 nM; against VEGFR [2], 2100 nM; on EGFR, 650 nM; against Syk, 80 nM. In “LogP”, this compound came in with a log partition coefficient (LogP) of 2.28. The EC50 in [1] (setting [5]) worked out at 716 nM; in [1] (setting [6]), 572 nM.
With `CCn1c(=O)c(-c2cc(NC(=O)Nc3ccccc3)c(F)cc2Br)cc2cnc(NC)cc21` [Ripretinib], the half-inhibitory concentration (IC50) was 3020 nM on HGFR; over 100000 nM against IGF1R; 0.24 nM on VEGFR [2]; 9930 nM against EGFR; 13200 nM on Syk; 84.4 nM on FGFR3.
Turning to `NC(=O)c1nnc(N[C@@H]2CCCC[C@@H]2N)nc1Nc1cccc2cc[nH]c12` [Syk-IN-1], the IC50 at Syk (read-out: IC50 Syk, ADP-Glo) was found to be 31 nM.
For `Cn1cc(-c2nc(N[C@@H]3CCCC[C@@H]3N)c(F)c3c2C(=O)NC3)cn1` [TAK-659], the IC50 is 3160 nM at HGFR; 150 nM at VEGFR [2]; 27600 nM at EGFR; 19 nM on FGFR3 (read-out: IC50 FGFR3, ADP-Glo).
As to `COc1ccc(Nc2nc(-c3ccc4c(CN5CC(O)C5)c[nH]c4c3)cnc2C(N)=O)cc1OC` [Compound S1115, 3-((3,4,-methoxyphenyl)amino)-5-(3-((3-hydroxyazetidin-1-yl)methyl)-1H-indol-6-yl)pyrazine-2-carboxamide], the half-maximal inhibitory concentration (IC50) on HGFR was over 40000 nM; against IGF1R, 900 nM; at VEGFR [2], 75 nM; against EGFR, 140 nM; at Syk it was 2.2 nM. For the same compound, the bioavailability in series [3] turned out to be 2%. The compound further showed a log partition coefficient (LogP) in “LogP” of 1.42. The figures for the EC50 in series [1] (setting [5]), in series [1] (setting [6]) and in series [1] (setting [7]) were 226 nM, 262 nM and 1590 nM, respectively.
Consider `COc1cc(Nc2ncc(F)c(Nc3ccc4c(n3)N(COP(=O)(O)O)C(=O)C(C)(C)O4)n2)cc(OC)c1OC` [Fostamtinib], for which the half-maximal inhibitory concentration (IC50) against HGFR turned out to be 1570 nM; on IGF1R, 638 nM; against VEGFR [2], 18.7 nM; on EGFR it was 342 nM; against FGFR3 it was 91.4 nM.
As to `NC(=O)c1ncc(-c2ccc3c(CN4CC(N)C4)c[nH]c3c2)nc1Nc1cccc(-n2nccn2)c1` [Compound S1214], the half-maximal inhibitory concentration (IC50) at Syk worked out at 530 nM.
In the case of `COc1ccc(Nc2nc(-c3ccc4c(CN5CC(N)C5)c[nH]c4c3)cnc2C(N)=O)cc1OC` [Compound S1213], the IC50 against HGFR was over 20000 nM; at IGF1R, over 20000 nM; against VEGFR [2] it was over 2000 nM; at EGFR, 25000 nM; against Syk, 25 nM; against FGFR3, over 3000 nM. Moreover, in [3], the bioavailability came out at 2%. This compound registered a LogP in the series “LogP” of 1.04. For the same compound, the EC50 in series [1] (setting [5]) came out at 1500 nM.
Consider `N#CCC1CCN(c2nc(Nc3ccc(N4CCC(O)CC4)cc3)c3c(=O)[nH]ncc3n2)CC1` [Gusacitinib], for which the concentration for half-maximal inhibition (IC50) against Syk is 5 to 46 nM.
On to `Oc1cc(O)cc(/C=C/c2ccc(O)c(O)c2)c1` [Piceatannal], for which the concentration for half-maximal inhibition (IC50) on HGFR was 35000 nM; on IGF1R (read-out: IC50 IGF1R, ADP-Glo), 21500 nM; against VEGFR [2], 5000 nM; against EGFR it was 17600 nM; on FGFR3 (read-out: IC50 FGFR3, ADP-Glo), 24700 nM.
`Nc1cncc(-c2cn3ccnc3c(Nc3ccc(N4CCN(C5COC5)CC4)cc3)n2)n1` [Lanraplenib]: the IC50 against HGFR was over 100000 nM; against IGF1R it was 2430 nM; on VEGFR [2], 778 nM; at EGFR, 4270 nM; at FGFR3 it was 69400 nM. The concentration giving a half-maximal response (EC50) in series [1] (setting [5]) was found to be 3000 nM.
Turning to `COc1cc(Nc2ncc(F)c(Nc3ccc4c(n3)NC(=O)C(C)(C)O4)n2)cc(OC)c1OC` [Compound R406], the EC50 in [1] (setting [8]) turned out to be 5000 nM.
In the case of `Cn1cc(-c2cc3c(N4CCN(c5ncc([C@@](C)(N)c6ccc(F)cc6)cn5)CC4)ncnn3c2)cn1` [Avapritinib], the IC50 at HGFR is 25000 nM; against IGF1R, over 100000 nM; against VEGFR [2], 2580 nM; at EGFR, 8730 nM; on Syk, 280 nM; on FGFR3 it was 1020 nM.
On to `COc1ccc(Nc2nc(-c3ccc4c(CCCO)cn(C)c4c3)cnc2C(N)=O)cc1OC` [Compound S2053], for which the IC50 is over 10000 nM at IGF1R; over 10000 nM at VEGFR [2]; 4300 nM at EGFR; 147 nM against Syk; over 5000 nM on FGFR3. Moreover, in series [3], the bioavailability is 8%. In “LogP”, this compound returned a log partition coefficient (LogP) of 2.63.
`Cc1cc(Nc2nccc(C)n2)cc(-c2cnc([C@@]3(O)CC[C@H](C(=O)O)C(C)(C)C3)s2)c1` [Syk-IN-3]: the IC50 on Syk (read-out: IC50 Syk, ADP-Glo) came out at 1 nM.
The same measure, in the same setting: to `Cc1cc(Nc2nc(N[C@@H]3CCOC[C@@H]3N)nnc2C(N)=O)cc2cn(C(C)(C)C)nc12` [TAS05567] belongs 0.37 nM.
On to `CN1CCN(c2ccc(C(=O)Nc3n[nH]c4ccc(Cc5cc(F)cc(F)c5)cc34)c(NC3CCOCC3)c2)CC1` [Entrectinib], for which the IC50 on VEGFR [2] was 441 nM; at FGFR3 it was 246 nM.
Turning to `CCS(=O)(=O)N1CCN(c2ccc(Nc3ncc(C(N)=O)c(NC4CC4)n3)cc2)CC1` [Cerdulatinib], the half-inhibitory concentration (IC50) on Syk (read-out: IC50 Syk, ADP-Glo) came out at 32 nM.
For the compound `NC(=O)c1cnc(N[C@@H]2CCCC[C@@H]2N)nc1Nc1cccc(-n2nccn2)c1` [PRT062067], the EC50 in series [1] (setting [8]) is 300 nM.
In the case of `COc1ccc(Nc2nc(-c3ccc4c(CN5CC(C(=O)O)C5)c[nH]c4c3)cnc2C(N)=O)cc1OC` [Compound S1219], the bioavailability in series [3] is 1.1%. The same compound had a lipophilicity (LogP) in “LogP” of 1.54. On Syk, the IC50 came to 50 nM.
Turning to `Cc1cc(Nc2ncnc3ccc(NC4=NC(C)(C)CO4)cc23)ccc1Oc1ccn2ncnc2c1` [Tucatinib], the 50% inhibitory concentration (IC50) is 11100 nM at HGFR; over 100000 nM against IGF1R; 1960 nM on VEGFR [2]; 38.8 nM against EGFR; 4930 nM at Syk; 66500 nM against FGFR3.
For the compound `NCCNc1ncc(C(N)=O)c(Nc2cccc(C(F)(F)F)c2)n1` [Syk II], the concentration for half-maximal inhibition (IC50) on HGFR was determined as 69400 nM; on IGF1R (read-out: IC50 IGF1R, ADP-Glo), 13500 nM; against VEGFR [2], 4210 nM; on EGFR, 27000 nM; at Syk (read-out: IC50 Syk, ADP-Glo) it was 70.3 nM; on FGFR3 (read-out: IC50 FGFR3, ADP-Glo), 36900 nM.
For the compound `COc1ccc(Nc2nc(-c3ccc4c(CN5CC(O)C5)c[nH]c4c3)cn3ccnc23)cc1OC` [Compound S970, 1-((6-(8-((3,4-dimethoxyphenyl)amino)imidazo[1,2-a]pyrazin-6-yl)-1H-indol-3-yl)methyl)azetidin-3-ol], on HGFR (selectivity ratio), the “Ratio of IC50 SYK/Kinases: HGFR” value was found to be 220. Besides, on IGF1R (selectivity ratio), the “Ratio of IC50 SYK/Kinases: IGF1R” value is recorded as 55. In “LogP”, the LogP is reported as 2.29. Further, the EC50 in series [1] (setting [5]) turned out to be 1500 nM; in series [1] (setting [6]), 4400 nM; in series [1] (setting [7]), 10000 nM. The IC50 stood at 4000 nM against VEGFR [2], 8000 nM on EGFR and 177 nM on Syk. For the same compound, the “Ratio of IC50 SYK/Kinases: VEGFR3” value in the series on VEGFR [4] is given as 22. In addition, the “Ratio of IC50 SYK/Kinases: EGFR” value at EGFR (selectivity ratio) was 44. For the same compound, the “Ratio of IC50 SYK/Kinases: SYK” value on Syk (selectivity ratio) came out at 1. Moreover, the “Ratio of IC50 SYK/Kinases: FGF3R” value on FGFR3 (selectivity ratio) is 55.
`COc1ccc(Nc2nc(-c3ccc4c(CCCN)cn(C)c4c3)cnc2C(N)=O)cc1OC` [Compound S2054] registered an IC50 against Syk of 680 nM.
With `O=C(Nc1cnn2ccc(N3CCC[C@@H]3c3cc(F)ccc3F)nc12)N1CC[C@H](O)C1` [Larotrectinib], the IC50 on HGFR is over 100000 nM; on IGF1R, over 100000 nM; on VEGFR [2], 19600 nM; against EGFR, 6370 nM; on Syk, 23600 nM; against FGFR3 it was 1980 nM.
In the case of `Cc1nn(-c2ccnc(Nc3ccc(-c4csc5c(=O)cc(N6CCOCC6)oc45)cc3)n2)cc1CN1CCC1` [SRX3207], on Syk (read-out: IC50 Syk, ADP-Glo), the IC50 amounted to 10.7 nM.
In the case of `CCc1cc2c(cc1N1CCC(N3CCOCC3)CC1)C(C)(C)c1[nH]c3cc(C#N)ccc3c1C2=O` [Alectinib], the 50% inhibitory concentration (IC50) against HGFR came out at 1030 nM; against IGF1R it was 1010 nM; at VEGFR [2] it was 335 nM; at Syk it was 37100 nM; at FGFR3 it was 1810 nM.
On to `COc1ccc(-c2cc3nccn3c(Nc3ncccc3C(N)=O)n2)cc1OC` [Syk IV], for which it took 91.2 nM to reach half-maximal inhibition against VEGFR [2] (IC50).
As for `c1cn2cc(-c3ccc4cn[nH]c4c3)nc(Nc3ccc(N4CCOCC4)cc3)c2n1` [Entospletinib], the half-inhibitory concentration (IC50) against IGF1R is 813 nM; on VEGFR [2] it was 244 nM; against FGFR3, 9900 nM. Moreover, in series [1] (setting [8]), the EC50 turned out to be 3000 nM.
